Data on 1 cell line can be found in the supplement of paper PMC10307832.

What all share (test): relative viability (nuclei count vs DMSO), 5 days (fraction); higher = more cells survive
Compound in the assay “Bleomycin + Phenformin”: CC1=C(N=C(N=C1N)[C@H](CC(=O)N)NC[C@@H](C(=O)N)N)C(=O)N[C@@H]([C@H](C2=CN=CN2)OC3C(C(C(C(O3)CO)O)O)OC4C(C(C(C(O4)CO)O)OC(=O)N)O)C(=O)N[C@H](C)[C@H]([C@H](C)C(=O)N[C@@H]([C@@H](C)O)C(=O)NCCC5=NC(=CS5)C6=NC(=CS6)C(=O)NCCC[S+](C)C)O [Bleomycin] + N=C(N)NC(=N)NCCc1ccccc1 [Phenformin] (partner 250 µM)
Particulars: main component drawn. Summed up: (§1)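 Nuclei were stained with Hoechst during a one-step fixation (final 0.05% Triton X-100, 1% formaldehyde, 1 ug/ml Hoechst) carried out 5 days after dosing, then counted on 4× images. The cells, lung cancer lines in 1536-well plates, had been dosed by pin tool the day after seeding with one drug alone or a fixed anchor-drug dose plus five library-drug doses (not always all listed) in √10 steps. Relative viability is the nuclei count in treated wells divided by that in vehicle wells, and each value is the median of duplicate plates.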

Compound in the assay “Etoposide + Pemetrexed”: COc1cc([C@@H]2c3cc4c(cc3[C@@H](O[C@@H]3O[C@@H]5CO[C@@H](C)O[C@H]5[C@H](O)[C@H]3O)[C@H]3COC(=O)[C@H]23)OCO4)cc(OC)c1O [Etoposide] + Nc1nc2[nH]cc(CCc3ccc(C(=O)N[C@@H](CCC(=O)O)C(=O)O)cc3)c2c(=O)[nH]1 [Pemetrexed] (partner 0.2 µM)
The procedure, abridged:
as §1

Compound in the assay “Etoposide + Foretinib”: COc1cc([C@@H]2c3cc4c(cc3[C@@H](O[C@@H]3O[C@@H]5CO[C@@H](C)O[C@H]5[C@H](O)[C@H]3O)[C@H]3COC(=O)[C@H]23)OCO4)cc(OC)c1O [Etoposide] + COc1cc2c(Oc3ccc(NC(=O)C4(C(=O)Nc5ccc(F)cc5)CC4)cc3F)ccnc2cc1OCCCN1CCOCC1 [Foretinib] (partner 0.25 µM)
Summed up:
as §1

Compound in the assay “Bleomycin + Pictilisib”: CC1=C(N=C(N=C1N)[C@H](CC(=O)N)NC[C@@H](C(=O)N)N)C(=O)N[C@@H]([C@H](C2=CN=CN2)OC3C(C(C(C(O3)CO)O)O)OC4C(C(C(C(O4)CO)O)OC(=O)N)O)C(=O)N[C@H](C)[C@H]([C@H](C)C(=O)N[C@@H]([C@@H](C)O)C(=O)NCCC5=NC(=CS5)C6=NC(=CS6)C(=O)NCCC[S+](C)C)O [Bleomycin] + CS(=O)(=O)N1CCN(Cc2cc3nc(-c4cccc5[nH]ncc45)nc(N4CCOCC4)c3s2)CC1 [Pictilisib] (partner 1 µM)
Particulars: main component drawn. The procedure, abridged:
as §1

With UMC-11, the relative viability in the assay with Bleomycin + Phenformin (first compound 0.01 µM) was found to be 0.311; with Bleomycin + Phenformin (first compound 0.03162 µM), 0.335; with Bleomycin + Phenformin (first compound 0.1 µM), 0.29; with Bleomycin + Phenformin (first compound 0.3162 µM), 0.283; in the assay with Bleomycin + Phenformin (first compound 1 µM) it was 0.233; with Etoposide + Pemetrexed (first compound 0.01 µM) it was 0.809. The relative viability worked out at 0.789 in the assay with Etoposide + Pemetrexed (first compound 0.03162 µM); 0.768 in the assay with Etoposide + Pemetrexed (first compound 0.1 µM); 0.53 with Etoposide + Pemetrexed (first compound 0.3162 µM); 0.313 with Etoposide + Pemetrexed (first compound 1 µM); 1.1 with Etoposide + Foretinib (first compound 0.01 µM); 1.17 in the assay with Etoposide + Foretinib (first compound 0.03162 µM). The relative viability was found to be 0.928 with Etoposide + Foretinib (first compound 0.1 µM); 0.566 in the assay with Etoposide + Foretinib (first compound 0.3162 µM); 0.322 with Etoposide + Foretinib (first compound 1 µM); 0.842 with Bleomycin + Pictilisib (first compound 0.01 µM); 0.661 with Bleomycin + Pictilisib (first compound 0.03162 µM); 0.827 with Bleomycin + Pictilisib (first compound 0.1 µM). Also, the results for the relative viability in the assay with Bleomycin + Pictilisib (first compound 0.3162 µM) and with Bleomycin + Pictilisib (first compound 1 µM) were 0.66 and 0.577, respectively.
